From patent US9695155B2, “Herbicidal substituted pyrimidinyloxy benzene compounds” (E. I. DU PONT DE NEMOURS AND COMPANY, priority 2013, dated 2017)

Key:
[1] = system: soybean; experiment: Test E postemergence; format: in vivo, Glycine max
Outline: (§1)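 Response was scored visually on a 0-100 scale (100 = complete control) versus controls after 14 to 21 days in the greenhouse. Test chemicals, formulated with surfactant in a non-phytotoxic solvent mixture, had been applied preemergence to seeds in silt loam soil or postemergence to 1- to 4-leaf plants in potting medium.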

[2] = system: field bindweed; experiment: Test E postemergence; format: in vivo, Convolvulus arvensis
Outline: as §1

[3] = system: arrowleaf sida; experiment: Test E postemergence; format: in vivo, Sida rhombifolia
Outline: as §1

[4] = system: wild poinsettia; experiment: Test E postemergence; format: in vivo, Euphorbia heterophylla
Outline: as §1

[5] = system: Italian ryegrass; experiment: Test E postemergence; format: in vivo, Lolium multiflorum
Outline: as §1

[6] = system: hairy beggarticks; experiment: Test E postemergence; format: in vivo, Bidens pilosa
Outline: as §1

[7] = system: dayflower; experiment: Test E postemergence; format: in vivo, Commelina virginica
Outline: as §1

[8] = system: sedge, umbrella; experiment: Test C flooded paddy test; format: in vivo, Cyperus difformis; settings: Flood, scale 0 to 100 (0 no effect, 100 complete control), 13 to 15 days
Outline: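 Flooded 3 cm over soil; compound into paddy water; depth kept constant. Greenhouse 13–15 d.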

[9] = Postemergence, 31 g ai/ha, scale 0 to 100
[10] = Postemergence, 62 g ai/ha, scale 0 to 100
[11] = Postemergence, 125 g ai/ha, scale 0 to 100
[12] = postemergence, 8 g ai/ha, scale 0 to 100, 0 no effect, 100 complete control
[13] = postemergence, 16 g ai/ha, scale 0 to 100, 0 no effect, 100 complete control

With `Clc1cnc(Oc2ccccc2-n2cc(Br)nn2)nc1` [Compound 223] the “Plant response rating, Soybean” value [1, 9] was 95, the “Plant response rating, Soybean” value [1, 10] was 98 and the “Plant response rating, Soybean” value [1, 11] was 98. The “Plant response rating, Soybean” value [1, 12] was 30, the “Plant response rating, Soybean” value [1, 13] was 60 and the “Plant response rating, Field Bindweed” value [2, 9] was 35. For the same molecule, the “Plant response rating, Field Bindweed” value [2, 10] was 50, the “Plant response rating, Field Bindweed” value [2, 11] was 50 and the “Plant response rating, Field Bindweed” value [2, 12] was 20. For the same molecule, the “Plant response rating, Field Bindweed” value [2, 13] was 20, the “Plant response rating, Arrowleaf Sida” value [3, 9] was 70 and the “Plant response rating, Arrowleaf Sida” value [3, 10] was 80. For the same molecule, the “Plant response rating, Arrowleaf Sida” value [3, 11] was 90, the “Plant response rating, Arrowleaf Sida” value [3, 12] was 50 and the “Plant response rating, Arrowleaf Sida” value [3, 13] was 60. For the same molecule, the “Plant response rating, Poinsettia, Wild” value [4, 9] was 40, the “Plant response rating, Poinsettia, Wild” value [4, 10] was 50 and the “Plant response rating, Poinsettia, Wild” value [4, 11] was 60. The “Plant response rating, Poinsettia, Wild” value [4, 12] was 30, the “Plant response rating, Poinsettia, Wild” value [4, 13] was 30 and the “Plant response rating, Ryegrass, Italian” value [5, 9] was 0. The “Plant response rating, Ryegrass, Italian” value [5, 10] was 0, the “Plant response rating, Ryegrass, Italian” value [5, 11] was 0 and the “Plant response rating, Ryegrass, Italian” value [5, 12] was 0. The “Plant response rating, Ryegrass, Italian” value [5, 13] was 0, the “Plant response rating, Beggarticks” value [6, 9] was 60 and the “Plant response rating, Beggarticks” value [6, 10] was 75. The “Plant response rating, Beggarticks” value [6, 11] was 85, the “Plant response rating, Beggarticks” value [6, 12] was 40 and the “Plant response rating, Beggarticks” value [6, 13] was 50. For the same molecule, the “Plant response rating, Dayflower, VA” value [7, 9] was 25, the “Plant response rating, Dayflower, VA” value [7, 10] was 55 and the “Plant response rating, Dayflower, VA” value [7, 11] was 65. The “Plant response rating, Dayflower, VA” value [7, 12] was 0 and the “Plant response rating, Dayflower, VA” value [7, 13] was 0.

For `N#Cc1cccc(Oc2ncc(F)cn2)c1-n1cc(C(F)(F)F)cn1` [Compound 79, 3-[(5-fluoro-2-pyrimidinyl)oxy]-2-[4-(trifluoromethyl)-1H-pyrazol-1-yl]benzonitrile], the plant response (crop injury) rating, soybean, 0-100 scale at 31 g/ha ([1]; Glycine max, post-emergence, Postemergence, 31 g ai/ha, scale 0 to 100) was 70%, the plant response (crop injury) rating, soybean, 0-100 scale at 62 g/ha ([1]; Glycine max, post-emergence, Postemergence, 62 g ai/ha, scale 0 to 100) was 95% and the plant response (crop injury) rating, soybean, 0-100 scale at 125 g/ha ([1]; Glycine max, post-emergence, Postemergence, 125 g ai/ha, scale 0 to 100) was 95%. The plant response (crop injury) rating, soybean, 0-100 scale at 16 g/ha ([1]; Glycine max, post-emergence, postemergence, 16 g ai/ha, scale 0 to 100, 0 no effect, 100 complete control) was 60%, the pest or weed control at 31 g/ha ([2]; Convolvulus arvensis, post-emergence, Postemergence, 31 g ai/ha, scale 0 to 100, read-out: Plant response rating, Field Bindweed) was 70% and the pest or weed control at 62 g/ha ([2]; Convolvulus arvensis, post-emergence, Postemergence, 62 g ai/ha, scale 0 to 100, read-out: Plant response rating, Field Bindweed) was 80%. The pest or weed control at 125 g/ha ([2]; Convolvulus arvensis, post-emergence, Postemergence, 125 g ai/ha, scale 0 to 100, read-out: Plant response rating, Field Bindweed) was 80%, the pest or weed control at 16 g/ha ([2]; Convolvulus arvensis, post-emergence, postemergence, 16 g ai/ha, scale 0 to 100, 0 no effect, 100 complete control, read-out: Plant response rating, Field Bindweed) was 60% and the pest or weed control at 31 g/ha ([3]; Sida rhombifolia, post-emergence, Postemergence, 31 g ai/ha, scale 0 to 100, read-out: Plant response rating, Arrowleaf Sida) was 75%. The pest or weed control at 62 g/ha ([3]; Sida rhombifolia, post-emergence, Postemergence, 62 g ai/ha, scale 0 to 100, read-out: Plant response rating, Arrowleaf Sida) was 85%, the pest or weed control at 125 g/ha ([3]; Sida rhombifolia, post-emergence, Postemergence, 125 g ai/ha, scale 0 to 100, read-out: Plant response rating, Arrowleaf Sida) was 98% and the pest or weed control at 16 g/ha ([3]; Sida rhombifolia, post-emergence, postemergence, 16 g ai/ha, scale 0 to 100, 0 no effect, 100 complete control, read-out: Plant response rating, Arrowleaf Sida) was 65%. The pest or weed control at 31 g/ha ([4]; Euphorbia heterophylla, post-emergence, Postemergence, 31 g ai/ha, scale 0 to 100, read-out: Plant response rating, Poinsettia, Wild) was 40%, the pest or weed control at 62 g/ha ([4]; Euphorbia heterophylla, post-emergence, Postemergence, 62 g ai/ha, scale 0 to 100, read-out: Plant response rating, Poinsettia, Wild) was 50% and the pest or weed control at 125 g/ha ([4]; Euphorbia heterophylla, post-emergence, Postemergence, 125 g ai/ha, scale 0 to 100, read-out: Plant response rating, Poinsettia, Wild) was 60%. The pest or weed control at 16 g/ha ([4]; Euphorbia heterophylla, post-emergence, postemergence, 16 g ai/ha, scale 0 to 100, 0 no effect, 100 complete control, read-out: Plant response rating, Poinsettia, Wild) was 40%, the pest or weed control at 62 g/ha ([5]; Lolium multiflorum, post-emergence, Postemergence, 62 g ai/ha, scale 0 to 100, read-out: Plant response rating, Ryegrass, Italian) was 0% and the pest or weed control at 125 g/ha ([5]; Lolium multiflorum, post-emergence, Postemergence, 125 g ai/ha, scale 0 to 100, read-out: Plant response rating, Ryegrass, Italian) was 0%. For the same molecule, the pest or weed control at 16 g/ha ([5]; Lolium multiflorum, post-emergence, postemergence, 16 g ai/ha, scale 0 to 100, 0 no effect, 100 complete control, read-out: Plant response rating, Ryegrass, Italian) was 0%, the pest or weed control at 31 g/ha ([6]; Bidens pilosa, post-emergence, Postemergence, 31 g ai/ha, scale 0 to 100, read-out: Plant response rating, Beggarticks) was 50% and the pest or weed control at 62 g/ha ([6]; Bidens pilosa, post-emergence, Postemergence, 62 g ai/ha, scale 0 to 100, read-out: Plant response rating, Beggarticks) was 75%. For the same molecule, the pest or weed control at 125 g/ha ([6]; Bidens pilosa, post-emergence, Postemergence, 125 g ai/ha, scale 0 to 100, read-out: Plant response rating, Beggarticks) was 80%, the pest or weed control at 16 g/ha ([6]; Bidens pilosa, post-emergence, postemergence, 16 g ai/ha, scale 0 to 100, 0 no effect, 100 complete control, read-out: Plant response rating, Beggarticks) was 40% and the pest or weed control at 31 g/ha ([7]; Commelina virginica, post-emergence, Postemergence, 31 g ai/ha, scale 0 to 100, read-out: Plant response rating, Dayflower, VA) was 30%. The pest or weed control at 62 g/ha ([7]; Commelina virginica, post-emergence, Postemergence, 62 g ai/ha, scale 0 to 100, read-out: Plant response rating, Dayflower, VA) was 50%, the pest or weed control at 125 g/ha ([7]; Commelina virginica, post-emergence, Postemergence, 125 g ai/ha, scale 0 to 100, read-out: Plant response rating, Dayflower, VA) was 50% and the pest or weed control at 16 g/ha ([7]; Commelina virginica, post-emergence, postemergence, 16 g ai/ha, scale 0 to 100, 0 no effect, 100 complete control, read-out: Plant response rating, Dayflower, VA) was 10%.

`FC(F)(F)c1cnn(-c2c(Br)cccc2Oc2ncc(Cl)cn2)c1` [Compound 191] was tested, and the “Plant response rating, Soybean” value [1, 9] was 60, the “Plant response rating, Soybean” value [1, 10] was 50 and the “Plant response rating, Soybean” value [1, 11] was 95. The “Plant response rating, Soybean” value [1, 12] was 20, the “Plant response rating, Soybean” value [1, 13] was 30 and the “Plant response rating, Field Bindweed” value [2, 9] was 50. The “Plant response rating, Field Bindweed” value [2, 10] was 40, the “Plant response rating, Field Bindweed” value [2, 11] was 50 and the “Plant response rating, Field Bindweed” value [2, 12] was 20. The “Plant response rating, Field Bindweed” value [2, 13] was 40, the “Plant response rating, Arrowleaf Sida” value [3, 9] was 70 and the “Plant response rating, Arrowleaf Sida” value [3, 10] was 70. The “Plant response rating, Arrowleaf Sida” value [3, 11] was 100, the “Plant response rating, Arrowleaf Sida” value [3, 12] was 50 and the “Plant response rating, Arrowleaf Sida” value [3, 13] was 60. The “Plant response rating, Poinsettia, Wild” value [4, 9] was 50, the “Plant response rating, Poinsettia, Wild” value [4, 10] was 50 and the “Plant response rating, Poinsettia, Wild” value [4, 11] was 60. The “Plant response rating, Poinsettia, Wild” value [4, 12] was 20, the “Plant response rating, Poinsettia, Wild” value [4, 13] was 40 and the “Plant response rating, Ryegrass, Italian” value [5, 9] was 0. For the same molecule, the “Plant response rating, Ryegrass, Italian” value [5, 10] was 0, the “Plant response rating, Ryegrass, Italian” value [5, 11] was 0 and the “Plant response rating, Ryegrass, Italian” value [5, 12] was 0. For the same molecule, the “Plant response rating, Ryegrass, Italian” value [5, 13] was 0, the “Plant response rating, Beggarticks” value [6, 9] was 40 and the “Plant response rating, Beggarticks” value [6, 10] was 50. For the same molecule, the “Plant response rating, Beggarticks” value [6, 11] was 50, the “Plant response rating, Beggarticks” value [6, 12] was 10 and the “Plant response rating, Beggarticks” value [6, 13] was 20. For the same molecule, the “Plant response rating, Sedge, Umbrella” value ([8]; 31 g ai/ha) was 40, the “Plant response rating, Sedge, Umbrella” value ([8]; 62 g ai/ha) was 60 and the “Plant response rating, Sedge, Umbrella” value ([8]; 125 g ai/ha) was 85. For the same molecule, the “Plant response rating, Sedge, Umbrella” value ([8]; 250 g ai/ha) was 98, the “Plant response rating, Dayflower, VA” value [7, 9] was 5 and the “Plant response rating, Dayflower, VA” value [7, 10] was 10. The “Plant response rating, Dayflower, VA” value [7, 11] was 10, the “Plant response rating, Dayflower, VA” value [7, 12] was 0 and the “Plant response rating, Dayflower, VA” value [7, 13] was 0.
